Assays:
AIF and EndoG = experiment: Western blot of nuclear fractions for AIF and EndoG; format: cell-based, human; details: EOC cells, 10 μg/ml
From the text: (§1) Protein preparation and cellular fractionation. After drug treatment, protein was extracted and measured as previously described (Alvero et al, 2006). For separation of the cytoplasmic and mitochondrial fractions, cell pellets were processed using the ApoAlert™ Cell Fractionation Kit (BD Biosciences, San Jose, Calif.) according to the manufacturer's instructions. For separation of the cytoplasmic and nuclear fractions, pellets were processed using NE-PER Nuclear and Cytoplasmic Extraction (Pierce Biotechnology, Inc., Rockford, Ill.).
(§2) SDS-PAGE and Western blots. Cell lysates (20 μg protein) were denatured in sample buffer (2.5% SDS, 10% glycerol, 5% β-mercapto-ethanol, 0.15 M Tris (pH=6.8) and 0.01% bromophenol blue) and subjected to 12% SDS-PAGE as previously described (Kamsteeg et al, 2003). […]

EOC cells = experiment: Mitochondrial depolarization using JC-1 (flow cytometry); format: cell-based, human; details: 10 pg/ml (as printed, FIG. 5 legend)
From the text: Assay of mitochondrial depolarization using JC-1. After treatment, cells were trypsinized and stained with JC-1 dye using the Mitocapture™ mitochondrial apoptosis detection kit (BioVision Research Products, Mountain View, Calif.) according to manufacturer's instruction. Data was acquired using BD LSR II System and analyzed using BD FACSDiva Software™.

Beclin-1 / Bcl2 = experiment: Beclin-1 immunoprecipitation from mitochondrial fraction, probed for Bcl2 and Bak; format: cell-based, human; details: 10 μg/ml, 1 h
Method: SDS-PAGE and Western blots. Cell lysates (20 μg protein) were denatured in sample buffer (2.5% SDS, 10% glycerol, 5% β-mercapto-ethanol, 0.15 M Tris (pH=6.8) and 0.01% bromophenol blue) and subjected to 12% SDS-PAGE as previously described (Kamsteeg et al, 2003). The following antibodies and concentrations were used: mouse anti-XIAP (BD, 1:1,000), rabbit anti-MAP LC3 (1:200), rabbit anti-actin (Sigma, 1:10,000), rabbit anti-phosphorylated Akt (Cell Signaling, 1:1,000), rabbit anti-Akt (Cell Signaling, 1:1000), rabbit anti-phosphorylated mTOR (Cell Signaling, 1:1000), rabbit anti-mTOR (Cell Signaling, 1:1000), rabbit anti-cytochrome c (Clontech Laboratories, Inc, Mountainview, Calif., 1:100), rabbit anti-Omi (R&D Systems, Minneapolis, Minn., 1:5000), rabbit anti-Bid (Cell Signaling, 1:1000), mouse anti-Bax (BD Pharmingen, 1:250), rabbit anti-VDAC (Sigma Aldrich, 1:2000), mouse anti-Bcl2 (BD Pharmingen, 1:500), rabbit anti-AIF (Sigma Aldrich, 1:1000), rabbit anti-EndoG (Sigma Aldrich, 1:1000), mouse anti-topoisomerase I (BD Pharmingen, 1:10,000). Proteins were visualized using enhanced chemiluminescence (Pierce, Rockford Ill.).
Immunoprecipitation. […]

EndoG = experiment: Immunohistochemistry of xenograft tumors for EndoG; format: in vivo, NCR nude mice; details: paraffin-embedded tumor sections; control tumors only cytoplasmic staining
Method: Mouse xenograft studies. The in vivo study as approved by the Yale University Institutional Animal Care & Use Committee. Cells (1×10^6 cells) were resuspended in 200 μ1 total volume of 50% RPMI and 50% BD Matrigel Matrix (BD Biosciences, Bedford, Mass.) and injected subcutaneously into the right flank of NCR nude mice. Intra-peritoneal therapy commenced eight days post-inoculation as follows: Paclitaxel 10 mg/kg q×3d, Carboplatin 40 mg/kg q×7d, and Compound 1 in 20% HPBCD, 100 mg/kg every day. Control groups received 20% HPBCD in PBS. Mice were treated and observed for 3 weeks. Tumor size was determined by caliper measurements and anti-tumor activity was analyzed with respect to maximal tumor inhibition (treated/control, T/C) as described previously (Kamsteeg et al, 2003).
Immunohistochemistry. Immunohistochemistry was performed as described previously (Kelly et al, 2006) using rabbit anti-EndoG (Lifespan Biosciences, Seattle, Wash.) at 1:100 dilution.

LC3-II = experiment: Western blot of EOC whole cell lysates for LC3-II; format: cell-based, human; details: EOC cells, 10 g/ml (as printed, FIG. 3 legend)
From the text: as §1, §2

HPAC cells [1] = experiment: Cell cycle analysis by FACS (PI), HPAC; format: cell-based, human; details: 10 μM, accompanied with an arrest in G0/G1, transient
Method: (§3) Cells. Human pancreatic cell lines HPAC, MIAPaCa-2 and PANC-1 were obtained from the ATCC. (Manassas, Va.). The cells were maintained in DMEM media with Gln and high glucose (Mediatech, Manassas, Va.) with 10% fetal bovine serum (FBS, HyClone, Logan, Utah) and pencillin/streptomycin.
(§4) FACS Analysis. Apoptosis was measured by FACS analysis using Annexin-V-FITC and propidium iodide (PI) (Biovision, Mountain View, Calif.) as probes (Ahn et al., 2003). Mitochondrial membrane potential was measured by FACS analysis using JC-1 (Biovision) as a probe (Ahn et al., 2003). Cell cycle was analyzed on ethanol-fixed, RNaseA-treated cells staining with PI. In each spectrum, 10,000 gated events were recorded and analyzed with a FACSCalibur (BD Biosciences. San Jose, Calif.). All experiments were done in triplicate, error bars represent one standard deviation. Caspase inhibitor I (zVAD-fmk) was obtained from Calbiochem.

HPAC cells [2] = experiment: Apoptosis/necrosis by FACS (Annexin-V-FITC/PI), HPAC; format: cell-based, human
Method: as §3, §4

PANC-1 cells = experiment: Apoptosis/necrosis by FACS (Annexin-V-FITC/PI), PANC-1; format: cell-based, human; details: PANC-1, dose-escalating, 48 hr exposure
Method: as §3, §4

MIAPaCa-2 cells = experiment: Apoptosis/necrosis by FACS (Annexin-V-FITC/PI), MIAPaCa-2; format: cell-based, human
Method: as §3, §4

[3] = dose-escalating, 48 hr exposure
[4] = MIAPaCa-2, dose-escalating, 48 hr exposure

| SMILES | level of nuclear AIF (AIF and EndoG) | level of nuclear EndoG (AIF and EndoG) | cells having depolarized mitochondria (EOC cells; 1 h) | cells having depolarized mitochondria (EOC cells; 4 h) | Bak in complex with Beclin-1 (Beclin-1 / Bcl2) | Bcl2 in complex with Beclin-1 (Beclin-1 / Bcl2; vs no treatment control) | localization of EndoG in tumors (EndoG) | levels of LC3-II (LC3-II) | G2/M arrest (HPAC cells [1]) | effect of zVAD-fmk pre-treatment on induced apoptosis (HPAC cells [2]; 10 μM zVAD-fmk 1 hr before 10 μM Compound 10, 42-46 h) | effect of zVAD-fmk pre-treatment on induced necrosis (HPAC cells [2]; 10 μM zVAD-fmk 1 hr pre-treatment, 10 μM Compound 10 or Fas-activating antibody) | apoptosis (HPAC cells [2]; [3]) | necrosis (HPAC cells [2]; [3]) | apoptosis (PANC-1 cells) | necrosis (PANC-1 cells) | effect of zVAD-fmk pre-treatment on induced necrosis (MIAPaCa-2 cells; MIAPaCa-2, 10 μM zVAD-fmk 1 h before 10 μM Compound 10) | effect of zVAD-fmk pre-treatment on induced apoptosis (MIAPaCa-2 cells; MIAPaCa-2, 10 μM zVAD-fmk 1 h pre-treatment, 10 μM Compound 10 or 50 ng/mL TRAIL) | apoptosis (MIAPaCa-2 cells; [4]) | necrosis (MIAPaCa-2 cells; [4]) |
| --- | --- | --- | --- | --- | --- | --- | --- | --- | --- | --- | --- | --- | --- | --- | --- | --- | --- | --- | --- |
| COc1ccc(C2c3ccc(O)c(C)c3OCC2c2ccc(O)cc2)cc1 (stereo not shown) [Compound 1, 3-(4-hydroxyphenyl)-4-(4-methoxyphenyl)-8-methylchroman-7-ol] | not | increase | 30% | 50% | not observed | Higher levels | nuclear localization | significant increase | – | – | – | – | – | – | – | – | – | – | – |
| COc1ccc(C2c3ccc(O)cc3OCC2c2ccc(O)cc2)cc1 (stereo not shown) [Compound 10, 3-(4-hydroxyphenyl)-4-(4-methoxyphenyl)chroman-7-ol] | – | – | – | – | – | – | – | – | less pronounced | did not inhibit | inhibited | induced apoptosis in a dose-dependent fashion | Very little necrosis | induced apoptosis in a dose-dependent fashion | Very little necrosis | inhibited | apparently enhanced | induced apoptosis in a dose-dependent fashion | Very little necrosis |

Reference: patent US20100130598A1, “METHODS FOR INDUCING PROGRAMMED CELL DEATH” (Novogen Research Pty Ltd., priority 2008, published 2010)
